# Laboratory results reported in patent EP3120851A1, “4-AMINO-6-(2,6-DICHLOROPHENYL)-8-METHYL-2-(PHENYLAMINO)-PYRIDO[2,3-D]PYRIMIDIN-7(8H)-ONE FOR TREATMENT OF SOLID CANCERS” (Pangaea Biotech S.L., priority 2015, dated 2017).
# How the values were obtained:
# UACC903 = assay: MTT proliferation assay, single agent; format: cell-based; settings: Homo sapiens, UACC-903, Melanoma, BRAF V600E, 72 h, mean of several independent experiments
# PC9-GR1 = assay: MTT proliferation assay, single agent; format: cell-based; settings: Lung ADC, EGFR ex19, 72 h, mean of several independent experiments
# Protocol: (§1) The compound of formula (1) was tested using a Thiazolyl Blue Tetrazolium Bromide (MTT) proliferation assay in a panel of tumor cell lines of different origins.
# (§2) All culture materials were obtained from Biological Industries (Kibbutz Beit Haemek, Israel) or Invitrogen (Paisley, Scotland, United Kingdom). The non-tumor cell lines HF and HACAT were provided by Vall d'Hebrón Hospital and GmbH, respectively. The PC9 naïve cell line was provided by Mayumi Ono and, the H3122, HCC78 and 11-18 by Daniel Costa. The PC9-GR1, PC9-GR2, PC9-GR3, PC9-GR4, PC9-GR5 and PC9-ER cell lines were derived in house by exposing the parental PC9 cell line to increasing concentrations of erlotinib (ER) or gefitinib (GR). The rest of the cell lines in which compound (1) was tested were purchased from ATCC (H23, H1975, H2228, A549, H460, Calu-6, H1650, SK-MES-1, EBC1, SNU1, AGS, N87, PC3, BxPC3, DLD1, HT29, SW48, SCC9,FaDu, AU565, Gingival, Prostate, SU-DHL-1 and A431). All cell lines were maintained in RPMI medium supplemented with 10% FBS, 50 µg/mL penicillin-streptomycin and 2 mM L-Glutamine. All cells were grown in a humidified atmosphere with 5% CO2 at 37°C.
# (§3) Cell viability in response to single agent treatment was assessed by the Thiazolyl Blue Tetrazolium Bromide (MTT) (Sigma, St Louis, MO) assay. Cells from each cell line were seeded at 2000 to 10000 per well in 96-well plates. […] After treatment, cells were incubated with medium containing MTT (0.75 mg/mL in medium) for 1-2 h at 37°C. Culture medium with MTT was removed and formazan crystals reabsorbed in 100 µL DMSO (Sigma, St. Louis, MO). Cell viability was determined by measuring the absorbance at 492 nm, using a microplate reader (BioWhittaker, Walkersville, MD).
# (§4) The IC50s shown are the mean of several independent experiments. Standard errors are also listed Table 2. SCC means squamous cell carcinoma, ADC means adenocarcinoma, GBM means glioblastoma.
# H1975 = assay: MTT proliferation assay, single agent; format: cell-based; settings: Homo sapiens, NCI-H1975, Lung ADC, EGFR ex21, 72 h, mean of several independent experiments
# Protocol: as §1, §2, §3, §4
# HT29 = assay: MTT proliferation assay, single agent; format: cell-based; settings: Homo sapiens, HT-29, Colon ADC, BRAF V600E, 72 h, mean of several independent experiments
# Protocol: as §1, §2, §3, §4
# PC9-GR4 = assay: MTT proliferation assay, single agent; format: cell-based; settings: Lung ADC, EGFR ex19, 72 h, mean of several independent experiments
# Protocol: as §1, §2, §3, §4
# PC3 = assay: MTT proliferation assay, single agent; format: cell-based; settings: Homo sapiens, PC-3, Prostate ADC, DDR2 wt, 72 h, no standard error printed
# Protocol: as §1, §2, §3, §4
# HCC366 = assay: MTT proliferation assay, single agent; format: cell-based; settings: SCC Lung, DDR2 mutated, 72 h, mean of several independent experiments
# Protocol: as §1, §2, §3, §4
# PC9-ER = assay: MTT proliferation assay, single agent; format: cell-based; settings: Homo sapiens, PC-9/ER, Lung ADC, EGFR ex19, 72 h, mean of several independent experiments
# Protocol: as §1, §2, §3, §4
# SCC9 = assay: MTT proliferation assay, single agent; format: cell-based; settings: Homo sapiens, SCC-9, SCC Head&Neck, DDR2 wt, 72 h, mean of several independent experiments
# Protocol: as §1, §2, §3, §4
# I638F+T654M = assay: MTT proliferation assay, single agent; format: cell-based; settings: SCC Lung, DDR2 mutated, 72 h, mean of several independent experiments
# Protocol: as §1, §2, §3, §4
# DLD1 = assay: MTT proliferation assay, single agent; format: cell-based; settings: Homo sapiens, DLD-1, Colon ADC, KRAS, 72 h, mean of several independent experiments
# Protocol: as §1, §2, §3, §4
# SW48 = assay: MTT proliferation assay, single agent; format: cell-based; settings: Homo sapiens, Colon ADC, EGFR ex18, 72 h, mean of several independent experiments
# Protocol: as §1, §2, §3, §4
# H3122 = assay: MTT proliferation assay, single agent; format: cell-based; settings: Homo sapiens, NCI-H3122, Lung ADC, ALK-EML4 (v1), 72 h, mean of several independent experiments
# Protocol: as §1, §2, §3, §4
# L239R+T654M = assay: MTT proliferation assay, single agent; format: cell-based; settings: SCC Lung, DDR2 mutated, 72 h, mean of several independent experiments
# Protocol: as §1, §2, §3, §4
# CD74-ROS1 (G2032) = assay: MTT proliferation assay, single agent; format: cell-based; settings: Lung ADC, ROS1 translocated, 72 h, mean of several independent experiments
# Protocol: as §1, §2, §3, §4
# H1703 = assay: MTT proliferation assay, single agent; format: cell-based; settings: Homo sapiens, NCI-H1703, SCC Lung, DDR2 wt, 72 h, mean of several independent experiments
# Protocol: as §1, §2, §3, §4
# WM793 = assay: MTT proliferation assay, single agent; format: cell-based; settings: Homo sapiens, Melanoma, BRAF V600E, 72 h, mean of several independent experiments
# Protocol: as §1, §2, §3, §4
# [1] = system: mantle cell lymphoma (MCL) cell lines; settings: Eur. J. Med. Chem., 2014, 86, 664-675; cited from earlier work
smiles,measurement,setting,value
"Cn1c(=O)c(-c2c(Cl)cccc2Cl)cc2c(N)nc(Nc3ccccc3)nc21 [Compound (1), 4-amino-6-(2,6-dichlorophenyl)-8-methyl-2-(phenylamino)-pyrido[2,3-d]pyrimidin-7(8H)-one]",IC50,UACC903,3350 nM
same,IC50,PC9-GR1,1450 nM
same,IC50,H1975,2070 nM
same,IC50,HT29,2000 nM
same,IC50,PC9-GR4,2100 nM
same,IC50,PC3,3400 nM
same,IC50,HCC366,830 nM
same,IC50,PC9-ER,1180 nM
same,IC50,SCC9,4350 nM
same,IC50,I638F+T654M,770 nM
same,IC50,DLD1,1000 nM
same,IC50,SW48,750 nM
same,IC50,H3122,1340 nM
same,IC50,L239R+T654M,600 nM
same,IC50,CD74-ROS1 (G2032),2000 nM
same,IC50,H1703,550 nM
same,IC50,WM793,1600 nM
same,cytostatic activity,[1],good cytostatic activity
